Test [1] concerns the target T1, mutEGFR (D770_N771insNPG, T790) (Homo sapiens, UniProt P00533, INS770NPG/T790M).
T1 construct: exact insNPG construct not described; in-house EGFR proteins were N-terminal GST fusions from baculovirus/insect cells (borders R669-A1210 given only for WT, insSVD, insASV)
The test can be described thus: mutEGFR (D770_N771insNPG, T790) kinase assay. It counts as biochemical. The text has this: The different EGFR proteins used in the biochemical kinase activity inhibition assays were generated inhouse by expression in insect cells using Baculo Virus system and subsequent purification as described in the following paragraphs.
The cDNAs encoding the various protein sequences from human EGFR human (P00533) were optimized for expression in eukaryotic cells and synthesized by the GeneArt Technology at Life Technologies.

Another test has as its system BA/F3 (insSVD) cells. Kind of test: Ba/F3-EGFR-insSVD cell survival assay (Cell Titer-Glo). It counts as cell-based. In a few lines: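 CellTiter-Glo luminescence read after 48 h compound exposure at 37° C. Cells: IL-3-independent Ba/F3 lines transduced with EGFR-insSVD or EGFR-insSVD T790M, maintained on 10 ng/ml EGF and seeded at 4000 per well.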
The target of test [2] is T2, mutEGFR (D770_N771insSVD) (Homo sapiens, UniProt P00533, DUP768-770).
T2 construct: GST-EGFR #3 (SVD between D770 and N771); made in house; host or cells: Sf9 insect cells (baculovirus)
T2 sequence (P00533 with tags, fused parts or gaps DUP768-770): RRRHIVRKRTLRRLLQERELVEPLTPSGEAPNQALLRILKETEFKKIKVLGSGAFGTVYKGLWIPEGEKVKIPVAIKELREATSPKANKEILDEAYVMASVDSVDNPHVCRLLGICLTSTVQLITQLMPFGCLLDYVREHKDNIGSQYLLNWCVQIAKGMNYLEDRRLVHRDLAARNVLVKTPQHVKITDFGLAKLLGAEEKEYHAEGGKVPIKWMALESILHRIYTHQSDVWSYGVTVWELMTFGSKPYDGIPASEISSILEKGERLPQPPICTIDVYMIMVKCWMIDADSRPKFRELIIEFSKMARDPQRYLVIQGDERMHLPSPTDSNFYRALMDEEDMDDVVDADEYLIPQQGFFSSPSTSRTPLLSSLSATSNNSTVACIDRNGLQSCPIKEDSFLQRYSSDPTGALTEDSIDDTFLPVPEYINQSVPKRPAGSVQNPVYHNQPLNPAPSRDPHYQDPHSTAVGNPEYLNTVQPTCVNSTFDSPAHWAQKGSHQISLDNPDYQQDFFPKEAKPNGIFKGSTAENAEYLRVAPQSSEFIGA
The test can be described thus: Exon20-Mutant-EGFR (D770_N771insSVD) kinase assay (TR-FRET). It counts as biochemical. On the technique in general: TR-FRET usually uses a lanthanide donor and a delayed reading to cut background.

[3] abbreviates: Mus musculus, BaF3, 48 h, Table 3a, cell survival, Cell Titer-Glo, with 10 ng/ml EGF, without IL-3.
[4] abbreviates: mutEGFR (D770_N771insSVD) kinase assay IC50, Table 2a, D770_N771insSVD, 2 mM ATP.
[5] abbreviates: Table 3a, cell survival, Cell Titer-Glo, with 10 ng/ml EGF, without IL-3, 48 h.
Setting [6] is: Table 2b (from US Priority Patent Application), mutEGFR D770_N771insNPG.
Setting [7] is: Mus musculus, BaF3, 48 h, Table 3b, Ba/F3 EGFR-insSVD.
The mark [8] stands for this setting: mutEGFR (D770_N771insSVD) kinase assay IC50, Table 2b (from US Priority Patent Application), mutEGFR D770_N771insSVD.

Usually IC50 stands for the concentration that gives 50% inhibition. Low readings indicate inhibition by little substance, high ones a need for much substance.

T1 sequence (P00533 with tags, fused parts or gaps INS770NPG/T790M limits assumed): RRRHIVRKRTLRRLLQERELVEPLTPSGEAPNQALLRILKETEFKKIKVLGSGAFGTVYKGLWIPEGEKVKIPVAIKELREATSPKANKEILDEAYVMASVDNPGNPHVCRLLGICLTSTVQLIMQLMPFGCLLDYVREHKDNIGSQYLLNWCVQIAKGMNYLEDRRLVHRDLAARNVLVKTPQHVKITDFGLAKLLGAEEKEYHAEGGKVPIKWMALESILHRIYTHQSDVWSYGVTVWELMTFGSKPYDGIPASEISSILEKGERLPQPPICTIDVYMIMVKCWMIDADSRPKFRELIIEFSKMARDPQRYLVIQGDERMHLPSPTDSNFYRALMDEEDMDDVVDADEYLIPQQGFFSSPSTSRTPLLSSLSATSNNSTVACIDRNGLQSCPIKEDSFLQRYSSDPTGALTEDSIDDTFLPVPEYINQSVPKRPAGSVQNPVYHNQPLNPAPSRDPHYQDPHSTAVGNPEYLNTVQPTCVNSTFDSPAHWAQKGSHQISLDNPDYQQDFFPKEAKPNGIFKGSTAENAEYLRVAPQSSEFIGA

Regarding `C=CC(=O)N1CCn2nc(-c3ccc(C(F)(F)F)c(F)c3)c(-c3ccncc3)c2C1` [Example 134, 1-{2-[3-fluoro-4-(trifluoromethyl)phenyl]-3-(pyridin-4-yl)-6,7-dihydropyrazolo[1,5-a]pyrazin-5(4H)-yl}prop-2-en-1-one], the half-inhibitory concentration (IC50) in test [1] (Table 2a, D770_N771insNPG) was determined as 9.18 nM; in the test on BA/F3 (insSVD) cells (setting [3]), 65.1 nM; in test [2] (setting [4]) it was 2.1 nM.
For `Cc1c[nH]c2nccc(-c3c(-c4ccc(F)cc4)nn4c3CN(C(=O)/C=C/CN(C)C)[C@@H](C)C4)c12` [Example 257, (2E)-4-(dimethylamino)-1-[(6S)-2-(4-fluorophenyl)-6-methyl-3-(3-methyl-1H-pyrrolo[2,3-b]pyridin-4-yl)-6,7-dihydropyrazolo[1,5-a]pyrazin-5(4H)-yl]but-2-en-1-one], in that order: 20.8 nM, 30.7 nM and 69.7 nM.
With `Cc1c[nH]c2nccc(-c3c(-c4ccc(C(F)(F)F)cc4)nn4c3C(C)N(C(=O)/C=C/CN(C)C)CC4)c12` (single isomer, unassigned; isomer 2) [Example 253, 4-(dimethylamino)-1-(4-methyl-3-(3-methyl-1H-pyrrolo[2,3-b]pyridin-4-yl)-2-(4-(trifluoromethyl)phenyl)-6,7-dihydropyrazolo[1,5-a]pyrazin-5(4H)-yl) but-2-en-1-one (isomer 2)], the IC50 in test [1] (Table 2a, D770_N771insNPG) is 3950 nM; in the test on BA/F3 (insSVD) cells (setting [5]), 490 nM; in test [2] (setting [4]) it was 247 nM.
For `C=CC(=O)N1CCn2nc(-c3ccc(C)cc3F)c(-c3ccncc3)c2C1` [Example 110, 1-[2-(2-fluoro-4-methylphenyl)-3-(pyridin-4-yl)-6,7-dihydropyrazolo[1,5-a]pyrazin-5(4H)-yl]prop-2-en-1-one], the 50% inhibitory concentration (IC50) in test [1] (Table 2a, D770_N771insNPG) stood at 1.93 nM; in the test with BA/F3 (insSVD) cells (setting [3]), 33.2 nM; in test [2] (setting [4]) it was 0.75 nM.
For `C#Cc1ccc(-c2nn3c(c2-c2ccncc2)CN(C(=O)/C=C/CN(C)C)CC3)cc1` [Example 146, (2E)-4-(dimethylamino)-1-[2-(4-ethynylphenyl)-3-(pyridin-4-yl)-6,7-dihydropyrazolo[1,5-a]pyrazin-5(4H)-yl]but-2-en-1-one], the IC50 is 1170 nM in test [1] (Table 2a, D770_N771insNPG); 4680 nM in the test on BA/F3 (insSVD) cells (setting [3]); 680 nM in test [2] (setting [4]).
For `O=C(/C=C/CO)N1CCn2nc(-c3ccc(F)cc3)c(-c3ccncc3)c2C1` [Example 70, (2E)-1-[2-(4-fluorophenyl)-3-(pyridin-4-yl)-6,7-dihydropyrazolo[1,5-a]pyrazin-5(4H)-yl]-4-hydroxybut-2-en-1-one], in that order: 90.2 nM, 862 nM and 26.1 nM.
The matching figures for `COc1ccc(-c2nn3c(c2-c2ccncc2)CN(C(=O)/C=C/CN(C)C)CC3)cc1F` [Example 31, (2E)-4-(dimethylamino)-1-[2-(3-fluoro-4-methoxyphenyl)-3-(pyridin-4-yl)-6,7-dihydropyrazolo[1,5-a]pyrazin-5(4H)-yl]but-2-en-1-one]: 18.8 nM, 874 nM and 4.05 nM.
For `C=CC(=O)N1Cc2c(-c3ccncc3)c(-c3ccc4sccc4c3)nn2C(C)C1` (racemic) [Example 280, 1-[(7RS)-2-(1-benzothiophen-5-yl)-7-methyl-3-(pyridin-4-yl)-6,7-dihydropyrazolo[1,5-a]pyrazin-5(4H)-yl]prop-2-en-1-one], in that order: 0.151 nM, 6.82 nM and 0.0813 nM.
In the case of `CC1c2c(-c3ccnc4[nH]ccc34)c(-c3ccc(F)cc3)nn2CCN1C(=O)/C=C/CN(C)C` (single isomer, unassigned; isomer 2) [Example 267, (E)-4-(dimethylamino)-1-(2-(4-fluorophenyl)-4-methyl-3-(1H-pyrrolo[2,3-b]pyridin-4-yl)-6,7-dihydropyrazolo[1,5-a]pyrazin-5(4H)-yl) but-2-en-1-one (isomer 2)], the IC50 in test [1] (Table 2a, D770_N771insNPG) worked out at 21.7 nM; in the test with BA/F3 (insSVD) cells (setting [5]), 257 nM; in test [2] (setting [4]), 24.9 nM.
As to `C=CC(=O)N1CCn2nc(-c3ccc(C)cc3O)c(-c3ccncc3)c2C1` [Example 113, 1-[2-(2-hydroxy-4-methylphenyl)-3-(pyridin-4-yl)-6,7-dihydropyrazolo[1,5-a]pyrazin-5(4H)-yl]prop-2-en-1-one], the concentration for half-maximal inhibition (IC50) turned out to be 3.91 nM in test [1] (Table 2a, D770_N771insNPG); 55.5 nM in the test with BA/F3 (insSVD) cells (setting [3]); 1.76 nM in test [2] (setting [4]).
As for `CC1c2c(-c3ccncc3)c(-c3ccc(Cl)cc3F)nn2CCN1C(=O)/C=C/CN(C)C` (single isomer, unassigned; isomer 1) [Example 285, (2E)-1-[2-(4-chloro-2-fluorophenyl)-4-methyl-3-(pyridin-4-yl)-6,7-dihydropyrazolo[1,5-a]pyrazin-5(4H)-yl]-4-(dimethylamino)but-2-en-1-one (isomer 1)], the concentration for half-maximal inhibition (IC50) in test [1] (Table 2a, D770_N771insNPG) was determined as 0.644 nM; in the test with BA/F3 (insSVD) cells (setting [5]) it was 42 nM; in test [2] (setting [4]), 0.232 nM.
Consider `C=CC(=O)N1CCn2nc(-c3ccccc3)c(-c3ccncc3)c2C1` [Example 189, 1-[2-phenyl-3-(pyridin-4-yl)-6,7-dihydropyrazolo[1,5-a]pyrazin-5(4H)-yl]prop-2-en-1-one], for which the concentration for half-maximal inhibition (IC50) in test [1] (Table 2a, D770_N771insNPG) came to 1.74 nM; with BA/F3 (insSVD) cells (setting [3]), 22.3 nM; in test [2] (setting [4]), 1.02 nM.
With `C=CC(=O)N1CCn2nc(-c3cccc(F)c3)c(-c3ccncc3)c2C1` [Example 4, 1-[2-(3-fluorophenyl)-3-(pyridin-4-yl)-6,7-dihydropyrazolo[1,5-a]pyrazin-5(4H)-yl]prop-2-en-1-one], the concentration for half-maximal inhibition (IC50) stood at 1.47 nM in test [1] (Table 2a, D770_N771insNPG); 1.47 nM in test [1] (setting [6]); 50.5 nM in the test with BA/F3 (insSVD) cells (setting [3]); 50.5 nM in the test on BA/F3 (insSVD) cells (setting [7]); 1.45 nM in test [2] (setting [4]); 1.45 nM in test [2] (setting [8]).
Regarding `C=CC(=O)N1CCn2nc(-c3ccc(SC(F)(F)F)cc3)c(-c3ccncc3)c2C1` [Example 143, 1-[3-(pyridin-4-yl)-2-{4-[(trifluoromethyl)sulfanyl]phenyl}-6,7-dihydropyrazolo[1,5-a]pyrazin-5(4H)-yl]prop-2-en-1-one], the IC50 in test [1] (Table 2a, D770_N771insNPG) is 71.9 nM; with BA/F3 (insSVD) cells (setting [3]), 673 nM; in test [2] (setting [4]), 11.5 nM.
For the compound `CN(C)C/C=C/C(=O)N1CCn2nc(-c3cccc(Cl)c3)c(-c3ccncc3)c2C1` [Example 150, (2E)-1-[2-(3-chlorophenyl)-3-(pyridin-4-yl)-6,7-dihydropyrazolo[1,5-a]pyrazin-5(4H)-yl]-4-(dimethylamino)but-2-en-1-one], the IC50 in test [1] (Table 2a, D770_N771insNPG) was determined as 1.05 nM; in the test with BA/F3 (insSVD) cells (setting [3]), 54.3 nM; in test [2] (setting [4]), 0.764 nM.
For the compound `CN(C)C/C=C/C(=O)N1CCn2nc(-c3ccc(F)cc3)c(-c3ccncc3)c2C1` [Example 15, (2E)-4-(dimethylamino)-1-[2-(4-fluorophenyl)-3-(pyridin-4-yl)-6,7-dihydropyrazolo[1,5-a]pyrazin-5(4H)-yl]but-2-en-1-one], the IC50 came to 1.08 nM in test [1] (Table 2a, D770_N771insNPG); 1.08 nM in test [1] (setting [6]); 86.9 nM in the test with BA/F3 (insSVD) cells (setting [3]); 86.9 nM in the test with BA/F3 (insSVD) cells (setting [7]); 0.729 nM in test [2] (setting [4]); 0.729 nM in test [2] (setting [8]).
For the compound `C=CC(=O)N1CCn2nc(-c3ccc(OC(F)(F)F)cc3)c(-c3ccncc3)c2C1` [Example 129, 1-[3-(pyridin-4-yl)-2-[4-(trifluoromethoxy)phenyl]-6,7-dihydropyrazolo[1,5-a]pyrazin-5(4H)-yl]prop-2-en-1-one], the IC50 was 16 nM in test [1] (Table 2a, D770_N771insNPG); 106 nM in the test with BA/F3 (insSVD) cells (setting [3]); 2.97 nM in test [2] (setting [4]).
Turning to `C=CC(=O)N1CCn2nc(-c3ccc(C(F)(F)F)cc3)c(-c3ccnc4[nH]cc(C)c34)c2C1` [Example 48, 1-[3-(3-methyl-1H-pyrrolo[2,3-b]pyridin-4-yl)-2-[4-(trifluoromethyl)phenyl]-6,7-dihydropyrazolo[1,5-a]pyrazin-5(4H)-yl]prop-2-en-1-one], the IC50 in test [1] (Table 2a, D770_N771insNPG) came to 1270 nM; in the test on BA/F3 (insSVD) cells (setting [3]), 90.5 nM; in test [2] (setting [4]), 242 nM.
For `C=CC(=O)N1CCn2nc(-c3ccc4[nH]ccc4c3)c(-c3ccncc3)c2C1` [Example 193, 1-[2-(1H-indol-5-yl)-3-(pyridin-4-yl)-6,7-dihydropyrazolo[1,5-a]pyrazin-5(4H)-yl]prop-2-en-1-one], in that order: 2.85 nM, 45.6 nM and 0.831 nM.
For `C=CC(=O)N1Cc2c(-c3ccncc3)c(-c3ccc(F)cc3)nn2C(C(=O)N(C)C)C1` (single isomer, unassigned; isomer 1) [Example 206, 5-acryloyl-2-(4-fluorophenyl)-N,N-dimethyl-3-(pyridin-4-yl)-4,5,6,7-tetrahydropyrazolo[1,5-a]pyrazine-7-carboxamide (isomer 1)], the IC50 in test [1] (Table 2a, D770_N771insNPG) was determined as 82.9 nM; in the test on BA/F3 (insSVD) cells (setting [3]), 600 nM; in test [2] (setting [4]), 55.3 nM.

The record behind these values is patent US20260365653A1, “IRREVERSIBLE MUTEGFR INHIBITORS” (Bayer Aktiengesellschaft, priority 2022, published 2026).
